Measured values reported in ChEMBL document CHEMBL5465560, “Selectivity Literature for EUbOPEN Chemogenomic Library” (2024).
One block for each compound: values may come before it.

Assays:
[1] = target: T1, Muscle, skeletal receptor tyrosine-protein kinase (Homo sapiens) (UniProt O15146); assay: Selectivity interaction (KinomeScan (DiscoverX)) EUB0000666a MUSK; conditions: at 10 µM
T1 sequence (whole entry): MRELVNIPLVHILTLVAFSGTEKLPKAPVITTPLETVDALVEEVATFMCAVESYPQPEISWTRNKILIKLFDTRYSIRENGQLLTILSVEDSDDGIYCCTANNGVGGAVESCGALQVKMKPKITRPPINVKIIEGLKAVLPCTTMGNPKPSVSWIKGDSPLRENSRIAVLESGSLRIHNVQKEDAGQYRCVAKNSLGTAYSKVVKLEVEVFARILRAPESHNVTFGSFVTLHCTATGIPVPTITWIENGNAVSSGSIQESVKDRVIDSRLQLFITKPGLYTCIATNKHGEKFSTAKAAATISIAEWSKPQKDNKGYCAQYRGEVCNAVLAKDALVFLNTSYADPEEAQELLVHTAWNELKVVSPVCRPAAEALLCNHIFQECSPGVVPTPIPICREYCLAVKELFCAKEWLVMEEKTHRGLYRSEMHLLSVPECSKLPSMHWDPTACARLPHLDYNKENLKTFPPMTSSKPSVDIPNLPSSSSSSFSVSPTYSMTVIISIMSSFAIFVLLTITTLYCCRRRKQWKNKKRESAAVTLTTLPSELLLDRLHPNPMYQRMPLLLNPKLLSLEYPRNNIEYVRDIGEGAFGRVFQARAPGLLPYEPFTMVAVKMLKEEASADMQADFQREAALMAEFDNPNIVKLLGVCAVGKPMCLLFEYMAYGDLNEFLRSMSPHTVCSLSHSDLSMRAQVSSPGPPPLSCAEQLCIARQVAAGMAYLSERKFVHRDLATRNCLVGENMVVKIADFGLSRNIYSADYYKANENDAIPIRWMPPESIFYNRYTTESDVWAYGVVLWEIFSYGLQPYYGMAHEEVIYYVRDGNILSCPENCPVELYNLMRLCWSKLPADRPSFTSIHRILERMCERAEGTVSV

[2] = target: Cyclin-dependent kinase 5 (Homo sapiens, UniProt Q00535); assay: Selectivity interaction (KinomeScan (DiscoverX)) EUB0000666a CDK5; conditions: at 10 µM
Chain of Cyclin-dependent kinase 5 (Q00535 whole entry, looked up): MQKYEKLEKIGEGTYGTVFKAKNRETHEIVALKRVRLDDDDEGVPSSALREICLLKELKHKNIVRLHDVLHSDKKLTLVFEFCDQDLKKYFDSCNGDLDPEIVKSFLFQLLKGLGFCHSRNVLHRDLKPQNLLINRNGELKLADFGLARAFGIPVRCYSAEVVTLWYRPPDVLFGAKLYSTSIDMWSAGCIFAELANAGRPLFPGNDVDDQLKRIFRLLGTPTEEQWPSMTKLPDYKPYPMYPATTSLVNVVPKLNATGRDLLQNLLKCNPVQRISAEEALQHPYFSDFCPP

[3] = target: T2, cAMP-dependent protein kinase catalytic subunit PRKX (Homo sapiens) (UniProt P51817); assay: Selectivity interaction (SelectScreen profiling (Invitrogen)) EUB0000607a PRKX; conditions: at 2 µM
T2 sequence (whole entry): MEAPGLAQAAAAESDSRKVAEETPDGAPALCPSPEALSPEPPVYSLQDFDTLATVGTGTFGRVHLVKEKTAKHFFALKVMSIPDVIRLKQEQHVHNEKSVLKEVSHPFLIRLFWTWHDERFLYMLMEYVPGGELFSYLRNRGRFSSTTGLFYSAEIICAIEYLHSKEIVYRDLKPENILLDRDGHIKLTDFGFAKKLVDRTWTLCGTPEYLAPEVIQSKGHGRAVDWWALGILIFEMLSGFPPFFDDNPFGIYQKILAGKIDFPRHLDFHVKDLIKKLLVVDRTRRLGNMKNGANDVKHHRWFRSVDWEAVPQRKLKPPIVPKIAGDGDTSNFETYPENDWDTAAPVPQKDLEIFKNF

[4] = target: T3, Interleukin-1 receptor-associated kinase 3 (Homo sapiens) (UniProt Q9Y616); assay: Selectivity interaction (ActivX KiNativ screen (kinase selectivity in THP-1 cell lysates)) EUB0000639a IRAK3; type: subcellular; conditions: lysate
T3 sequence (whole entry): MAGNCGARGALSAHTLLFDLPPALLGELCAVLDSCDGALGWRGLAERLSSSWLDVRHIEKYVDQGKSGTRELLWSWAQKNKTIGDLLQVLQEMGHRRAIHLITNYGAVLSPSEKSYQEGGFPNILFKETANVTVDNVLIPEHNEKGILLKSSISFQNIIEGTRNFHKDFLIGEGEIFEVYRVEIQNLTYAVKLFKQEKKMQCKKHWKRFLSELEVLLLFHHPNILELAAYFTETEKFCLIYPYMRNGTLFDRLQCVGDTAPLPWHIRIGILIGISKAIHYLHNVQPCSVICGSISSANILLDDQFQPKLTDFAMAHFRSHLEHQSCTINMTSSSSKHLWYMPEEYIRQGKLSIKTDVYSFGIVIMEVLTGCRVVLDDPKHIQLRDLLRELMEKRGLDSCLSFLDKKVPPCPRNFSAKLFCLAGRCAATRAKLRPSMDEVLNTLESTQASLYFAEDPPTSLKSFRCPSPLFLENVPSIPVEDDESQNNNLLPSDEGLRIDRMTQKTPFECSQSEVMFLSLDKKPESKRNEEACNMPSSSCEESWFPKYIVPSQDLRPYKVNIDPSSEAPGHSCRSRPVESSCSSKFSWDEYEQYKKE

[5] = target: Insulin-like growth factor 1 receptor (Homo sapiens, UniProt P08069); assay: Selectivity interaction (ProQinase) EUB0000171b IGF1R
Chain of Insulin-like growth factor 1 receptor (P08069 31-736 limits assumed): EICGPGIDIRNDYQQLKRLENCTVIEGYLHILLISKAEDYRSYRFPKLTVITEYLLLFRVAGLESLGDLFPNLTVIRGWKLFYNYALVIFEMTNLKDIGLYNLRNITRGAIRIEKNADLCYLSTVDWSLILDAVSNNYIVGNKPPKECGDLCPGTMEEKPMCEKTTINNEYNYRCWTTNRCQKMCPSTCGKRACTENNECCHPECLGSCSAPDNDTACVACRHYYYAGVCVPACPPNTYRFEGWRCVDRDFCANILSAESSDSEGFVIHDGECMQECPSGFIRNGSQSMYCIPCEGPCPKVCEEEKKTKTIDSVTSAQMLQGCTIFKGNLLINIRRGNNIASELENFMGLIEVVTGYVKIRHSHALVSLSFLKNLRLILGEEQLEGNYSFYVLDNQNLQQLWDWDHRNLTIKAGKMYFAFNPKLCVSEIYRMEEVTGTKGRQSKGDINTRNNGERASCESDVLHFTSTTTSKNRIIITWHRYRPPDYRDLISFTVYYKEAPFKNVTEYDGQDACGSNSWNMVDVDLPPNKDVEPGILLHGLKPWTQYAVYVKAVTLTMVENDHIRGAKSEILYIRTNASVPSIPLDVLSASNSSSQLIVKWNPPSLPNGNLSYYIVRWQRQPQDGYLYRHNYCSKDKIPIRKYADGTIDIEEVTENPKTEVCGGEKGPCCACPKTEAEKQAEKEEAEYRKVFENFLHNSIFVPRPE
Chain of Insulin-like growth factor 1 receptor (P08069 741-1367 limits assumed): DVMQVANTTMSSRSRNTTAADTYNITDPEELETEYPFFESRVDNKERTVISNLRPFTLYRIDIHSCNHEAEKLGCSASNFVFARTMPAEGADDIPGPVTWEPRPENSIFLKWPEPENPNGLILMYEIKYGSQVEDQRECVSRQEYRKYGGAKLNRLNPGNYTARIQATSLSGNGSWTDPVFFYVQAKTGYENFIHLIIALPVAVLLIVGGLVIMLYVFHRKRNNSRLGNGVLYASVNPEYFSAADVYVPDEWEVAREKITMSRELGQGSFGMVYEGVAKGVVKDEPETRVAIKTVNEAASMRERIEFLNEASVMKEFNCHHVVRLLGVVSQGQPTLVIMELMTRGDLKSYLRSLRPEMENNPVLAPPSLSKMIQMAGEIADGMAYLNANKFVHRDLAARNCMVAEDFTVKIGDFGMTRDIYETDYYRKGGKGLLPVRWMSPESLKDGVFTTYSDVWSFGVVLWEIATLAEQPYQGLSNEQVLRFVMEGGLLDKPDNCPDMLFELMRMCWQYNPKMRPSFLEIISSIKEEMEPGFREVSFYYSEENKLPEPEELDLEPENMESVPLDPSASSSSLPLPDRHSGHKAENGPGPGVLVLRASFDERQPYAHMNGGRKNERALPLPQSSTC

[6] = target: T1, Muscle, skeletal receptor tyrosine-protein kinase (Homo sapiens); assay: Selectivity interaction (KinomeScan (DiscoverX)) EUB0000695a MUSK; conditions: at 100 nM
[7] = target: Inhibitor of nuclear factor kappa-B kinase subunit epsilon (Homo sapiens, UniProt Q14164); assay: Selectivity interaction (Enyzmatic assay) EUB0000601a IKBKE
Chain of Inhibitor of nuclear factor kappa-B kinase subunit epsilon (Q14164 whole entry): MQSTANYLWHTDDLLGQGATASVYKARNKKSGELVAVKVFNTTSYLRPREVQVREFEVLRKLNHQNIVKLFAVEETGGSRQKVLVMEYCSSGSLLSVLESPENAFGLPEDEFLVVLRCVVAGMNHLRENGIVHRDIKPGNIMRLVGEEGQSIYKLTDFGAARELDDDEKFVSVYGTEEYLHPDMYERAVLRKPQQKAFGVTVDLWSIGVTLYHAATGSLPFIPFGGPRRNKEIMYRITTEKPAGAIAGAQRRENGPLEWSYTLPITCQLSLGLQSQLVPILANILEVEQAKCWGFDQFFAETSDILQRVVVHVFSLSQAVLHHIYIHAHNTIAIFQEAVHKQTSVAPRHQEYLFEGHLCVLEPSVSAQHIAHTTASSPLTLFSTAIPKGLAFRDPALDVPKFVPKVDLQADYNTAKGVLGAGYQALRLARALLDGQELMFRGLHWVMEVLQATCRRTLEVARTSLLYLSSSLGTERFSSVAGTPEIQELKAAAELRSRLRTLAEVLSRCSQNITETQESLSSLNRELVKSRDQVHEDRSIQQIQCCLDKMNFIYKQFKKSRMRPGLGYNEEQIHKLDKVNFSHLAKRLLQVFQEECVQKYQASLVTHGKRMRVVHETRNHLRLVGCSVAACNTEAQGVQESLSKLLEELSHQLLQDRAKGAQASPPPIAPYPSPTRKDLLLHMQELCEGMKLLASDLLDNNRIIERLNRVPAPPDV

[8] = target: T1, Muscle, skeletal receptor tyrosine-protein kinase (Homo sapiens); assay: Selectivity interaction (KinomeScan (DiscoverX)) EUB0001079a MUSK; conditions: at 1 µM
[9] = target: Dual specificity mitogen-activated protein kinase kinase 1 (Homo sapiens, UniProt Q02750); assay: Selectivity interaction (KinomeScan (DiscoverX)) EUB0001079a MAP2K1; conditions: at 1 µM
Chain of Dual specificity mitogen-activated protein kinase kinase 1 (Q02750 whole entry): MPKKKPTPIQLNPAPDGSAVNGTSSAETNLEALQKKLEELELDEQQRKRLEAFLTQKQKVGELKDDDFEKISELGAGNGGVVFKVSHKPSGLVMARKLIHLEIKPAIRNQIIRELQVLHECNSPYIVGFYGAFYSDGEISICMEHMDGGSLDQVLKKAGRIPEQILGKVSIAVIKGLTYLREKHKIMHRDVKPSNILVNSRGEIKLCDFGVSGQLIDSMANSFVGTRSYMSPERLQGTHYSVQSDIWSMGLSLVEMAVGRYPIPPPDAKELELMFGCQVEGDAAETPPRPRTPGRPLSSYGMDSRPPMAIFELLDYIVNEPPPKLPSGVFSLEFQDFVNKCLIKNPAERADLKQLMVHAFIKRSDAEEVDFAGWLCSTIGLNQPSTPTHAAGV

[10] = target: Serine/threonine-protein kinase PAK 6 (Homo sapiens) (UniProt Q9NQU5); assay: Selectivity interaction (KinomeScan (DiscoverX)) EUB0000092b PAK6; conditions: at 10 µM
Chain of Serine/threonine-protein kinase PAK 6 (Homo sapiens) (Q9NQU5 whole entry, looked up): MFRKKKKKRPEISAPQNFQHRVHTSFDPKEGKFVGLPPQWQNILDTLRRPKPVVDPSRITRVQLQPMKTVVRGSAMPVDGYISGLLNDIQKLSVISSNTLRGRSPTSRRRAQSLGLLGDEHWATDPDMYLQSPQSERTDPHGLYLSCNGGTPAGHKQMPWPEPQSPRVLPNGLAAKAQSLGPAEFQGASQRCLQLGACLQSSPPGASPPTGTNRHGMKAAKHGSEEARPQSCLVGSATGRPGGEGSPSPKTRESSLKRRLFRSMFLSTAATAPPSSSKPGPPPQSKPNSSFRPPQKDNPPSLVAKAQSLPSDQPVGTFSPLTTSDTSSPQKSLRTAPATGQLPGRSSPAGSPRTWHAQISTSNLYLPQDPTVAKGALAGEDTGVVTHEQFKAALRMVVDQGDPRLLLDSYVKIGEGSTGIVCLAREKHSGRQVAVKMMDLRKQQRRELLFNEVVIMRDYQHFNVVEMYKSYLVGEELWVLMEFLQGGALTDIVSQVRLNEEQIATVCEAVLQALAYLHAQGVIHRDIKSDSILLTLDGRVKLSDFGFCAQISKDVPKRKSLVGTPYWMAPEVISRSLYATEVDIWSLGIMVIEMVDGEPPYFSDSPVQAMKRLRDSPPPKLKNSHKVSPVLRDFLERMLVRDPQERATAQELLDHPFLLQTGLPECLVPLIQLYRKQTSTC

[11] = target: ALK tyrosine kinase receptor (Homo sapiens, UniProt Q9UM73); assay: Selectivity interaction (KinomeScan (DiscoverX)) EUB0000618a ALK; conditions: at 10 µM
Chain of ALK tyrosine kinase receptor (Q9UM73 19-1620 limits assumed): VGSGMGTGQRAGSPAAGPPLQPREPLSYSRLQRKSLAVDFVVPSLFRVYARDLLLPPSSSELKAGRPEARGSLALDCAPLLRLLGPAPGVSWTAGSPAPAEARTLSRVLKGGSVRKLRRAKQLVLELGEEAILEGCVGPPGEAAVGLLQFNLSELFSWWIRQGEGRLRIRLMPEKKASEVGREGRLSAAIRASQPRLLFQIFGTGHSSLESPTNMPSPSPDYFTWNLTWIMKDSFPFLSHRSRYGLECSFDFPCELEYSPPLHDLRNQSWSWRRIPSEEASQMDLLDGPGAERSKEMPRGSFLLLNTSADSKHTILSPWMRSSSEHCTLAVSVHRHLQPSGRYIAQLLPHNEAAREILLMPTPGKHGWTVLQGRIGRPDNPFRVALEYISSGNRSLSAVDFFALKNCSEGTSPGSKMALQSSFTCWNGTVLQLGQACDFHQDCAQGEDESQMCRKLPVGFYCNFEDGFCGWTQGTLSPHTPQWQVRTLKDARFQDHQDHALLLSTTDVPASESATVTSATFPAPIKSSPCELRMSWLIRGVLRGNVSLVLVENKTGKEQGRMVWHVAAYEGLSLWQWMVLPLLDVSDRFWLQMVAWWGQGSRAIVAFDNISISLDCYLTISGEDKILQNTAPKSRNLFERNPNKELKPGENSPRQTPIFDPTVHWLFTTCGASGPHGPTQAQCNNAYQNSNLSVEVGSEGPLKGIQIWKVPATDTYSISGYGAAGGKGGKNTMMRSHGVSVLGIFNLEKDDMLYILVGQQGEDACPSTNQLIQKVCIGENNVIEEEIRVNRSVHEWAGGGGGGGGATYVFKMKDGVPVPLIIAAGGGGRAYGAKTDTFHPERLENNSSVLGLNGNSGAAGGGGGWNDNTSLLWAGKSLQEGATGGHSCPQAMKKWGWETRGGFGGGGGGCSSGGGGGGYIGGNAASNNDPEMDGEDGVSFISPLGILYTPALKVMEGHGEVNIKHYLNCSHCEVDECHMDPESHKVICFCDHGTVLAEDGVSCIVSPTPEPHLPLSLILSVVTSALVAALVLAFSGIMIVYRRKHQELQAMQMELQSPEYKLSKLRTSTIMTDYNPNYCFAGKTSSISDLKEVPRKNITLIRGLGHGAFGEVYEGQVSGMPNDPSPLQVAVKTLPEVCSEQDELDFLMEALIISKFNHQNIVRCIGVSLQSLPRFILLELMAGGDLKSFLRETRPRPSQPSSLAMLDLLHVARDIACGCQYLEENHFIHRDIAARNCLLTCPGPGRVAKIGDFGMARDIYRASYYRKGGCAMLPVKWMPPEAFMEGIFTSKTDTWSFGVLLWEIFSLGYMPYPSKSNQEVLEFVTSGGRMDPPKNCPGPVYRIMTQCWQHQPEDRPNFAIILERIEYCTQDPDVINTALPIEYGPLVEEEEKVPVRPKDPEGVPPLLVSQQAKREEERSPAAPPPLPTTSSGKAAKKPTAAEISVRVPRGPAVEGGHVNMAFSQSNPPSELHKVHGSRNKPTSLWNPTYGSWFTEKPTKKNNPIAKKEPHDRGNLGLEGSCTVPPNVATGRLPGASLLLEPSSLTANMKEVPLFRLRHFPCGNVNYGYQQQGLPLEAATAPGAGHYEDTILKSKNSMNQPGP

Compound: O=C(NOC[C@H](O)CO)c1ccc(F)c(F)c1Nc1ccc(I)cc1F
- % of control [1]: 68%
- % of control [2]: 100%

Compound: CNC(=O)Nc1ccc(-c2nc(N3CC4CCC(C3)O4)c3cnn(C4CCC5(CC4)OCCO5)c3n2)cc1
- % of inhibition [3]: 5%

- % of inhibition ([4]; at 0.01 µM): -3.6%
- % of inhibition ([4]; at 0.04 µM): 31.1%
- % of inhibition ([4]; at 0.2 µM): 72.5%
- % of inhibition ([4]; at 1 µM): 89.6%
- % of inhibition ([4]; at 5 µM): > 98%
Compound: CC[C@@H]1[C@H](F)C(=O)N[C@@H]1COc1nccc2cc(C(N)=O)c(OC)cc12 [ZIMLOVISERTIB]

- % of control ([5]; at 1 µM): 92%
- % of control ([5]; at 5 µM): 86%
Compound: C=CC(=O)Nc1cccc(C(=O)Nc2ccc(Nc3cc(-c4[nH]c(SC)nc4C)ccn3)cc2)c1

Compound: Cc1cc(F)c(C(=O)Nc2cccc(-c3nncn3C(C)C)n2)cc1-n1cnc(C2CC2)c1
- % of control [6]: 91%

- IC50 [7]: 3.2 µM
Compound: CCc1cc(Nc2nccc(-c3c(-c4ccc(OC)c(C(=O)Nc5c(F)cccc5F)c4)nc4ccccn34)n2)c(OC)cc1N1CCC(N2CCN(S(C)(=O)=O)CC2)CC1

Compound: Nc1cnc(N2CCc3cc(S(=O)(=O)Nc4c(F)cc(Cl)cc4F)cc(N4CCCC4=O)c32)nc1 [TP-020n]
- % of control [8]: 100%
- % of control [9]: 100%

Compound: CCC(=O)N1CCN(c2ccc(-n3c(=O)ccc4cnc5ccc(-c6cnc7ccccc7c6)cc5c43)cc2C(F)(F)F)CC1
- % of control [10]: 77%

Compound: O[C@H]1CC[C@H](Nc2ncc3nc(Nc4c(F)cc(F)cc4F)n([C@H]4CCOC4)c3n2)CC1
- % of control [11]: 100%
